Numbers after ± are expanded uncertainties.
Assay: activity coefficient (dimensionless); of the first substance listed, at infinite dilution; xn = mol fraction of the nth substance listed
Conditions: 101 kPa, Liquid, Chromatography, x1 = 0

Row | Compound | activity coefficient (308.15 K) | activity coefficient (318.15 K) | activity coefficient (328.15 K) | activity coefficient (338.15 K) | activity coefficient (348.15 K) | activity coefficient (358.15 K)
1 | CCCC(C)=O [pentan-2-one] + CCn1cc[n+](C)c1.CS(=O)(=O)[O-] | 7.83 ± 0.53 | 7.66 ± 0.52 | 7.52 ± 0.51 | 7.39 ± 0.5 | 7.26 ± 0.5 | 7.14 ± 0.49
2 | CCC(C)(C)OC [2-methoxy-2-methylbutane] + CCn1cc[n+](C)c1.CS(=O)(=O)[O-] | 40.3 ± 2.8 | 37.8 ± 2.6 | 35.8 ± 2.5 | 34 ± 2.3 | 32.6 ± 2.2 | 
3 | CCCCCCC [heptane] + CCn1cc[n+](C)c1.CS(=O)(=O)[O-] | 378 ± 26 | 328 ± 23 | 273 ± 19 | 244 ± 17 |  | 
4 | CCc1ccccc1 [ethylbenzene] + CCn1cc[n+](C)c1.CS(=O)(=O)[O-] | 18.1 ± 1.2 | 17.5 ± 1.2 | 17.1 ± 1.2 | 16.5 ± 1.1 | 16.1 ± 1.1 | 15.6 ± 1.1
5 | CCCOCCC [dipropyl ether] + CCn1cc[n+](C)c1.CS(=O)(=O)[O-] | 80.3 ± 5.5 | 72.7 ± 5 | 67.5 ± 4.6 | 62.8 ± 4.3 | 58.1 ± 4 | 
6 | CCOCC [diethyl ether] + CCn1cc[n+](C)c1.CS(=O)(=O)[O-] | 19.2 ± 1.3 | 18.2 ± 1.2 | 17.5 ± 1.2 | 16.8 ± 1.1 | 16.1 ± 1.1 | 
7 | CCC[N+](=O)[O-] [1-nitropropane] + CCn1cc[n+](C)c1.CS(=O)(=O)[O-] | 2.36 ± 0.16 | 2.37 ± 0.16 | 2.37 ± 0.16 | 2.38 ± 0.16 | 2.39 ± 0.16 | 2.39 ± 0.16
8 | C=CCCCCC [1-heptene] + CCn1cc[n+](C)c1.CS(=O)(=O)[O-] | 148 ± 10 | 134 ± 9 | 122 ± 8 | 112 ± 8 | 102 ± 7 | 
9 | CCOC(C)(C)C [2-ethoxy-2-methylpropane] + CCn1cc[n+](C)c1.CS(=O)(=O)[O-] | 66.5 ± 4.6 | 60.8 ± 4.2 | 57.1 ± 3.9 | 53.5 ± 3.7 | 50 ± 3.4 | 
10 | C1CCCCC1 [cyclohexane] + CCn1cc[n+](C)c1.CS(=O)(=O)[O-] | 83.6 ± 5.7 | 73.9 ± 5.1 | 67.6 ± 4.6 | 59.6 ± 4.1 | 53.7 ± 3.7 | 
11 | C=C(C)c1ccccc1 [(1-methylethenyl)benzene] + CCn1cc[n+](C)c1.CS(=O)(=O)[O-] | 10.7 ± 0.7 | 10.9 ± 0.7 | 11.1 ± 0.8 | 11.2 ± 0.8 | 11.3 ± 0.8 | 11.5 ± 0.8
12 | c1ccsc1 [thiophene] + CCn1cc[n+](C)c1.CS(=O)(=O)[O-] | 1.87 ± 0.13 | 1.92 ± 0.13 | 1.96 ± 0.13 | 2 ± 0.14 | 2.05 ± 0.14 | 2.09 ± 0.14
13 | CCCCCCCC [octane] + CCn1cc[n+](C)c1.CS(=O)(=O)[O-] | 597 ± 41 | 505 ± 35 | 453 ± 31 | 388 ± 27 | 350 ± 24 | 
14 | CCCCCCCCCC [decane] + CCn1cc[n+](C)c1.CS(=O)(=O)[O-] | 1320 ± 91 | 1180 ± 82 | 1040 ± 72 | 925 ± 64 | 835 ± 58 | 762 ± 53
15 | COC(C)(C)C [2-methoxy-2-methylpropane] + CCn1cc[n+](C)c1.CS(=O)(=O)[O-] | 23.6 ± 1.6 | 22.5 ± 1.5 | 21.7 ± 1.5 | 20.7 ± 1.4 | 20 ± 1.4 | 
16 | C#CCCCCC [1-heptyne] + CCn1cc[n+](C)c1.CS(=O)(=O)[O-] | 14.4 ± 1 | 14.6 ± 1 | 14.5 ± 1 | 14.6 ± 1 | 14.6 ± 1 | 
17 | CC#N [acetonitrile] + CCn1cc[n+](C)c1.CS(=O)(=O)[O-] | 0.799 ± 0.052 | 0.818 ± 0.053 | 0.841 ± 0.054 | 0.86 ± 0.06 | 0.877 ± 0.056 | 0.892 ± 0.057
18 | CO [methanol] + CCn1cc[n+](C)c1.CS(=O)(=O)[O-] | 0.223 ± 0.029 | 0.225 ± 0.029 | 0.228 ± 0.029 | 0.229 ± 0.029 | 0.232 ± 0.029 | 0.234 ± 0.029
19 | CCO [ethanol] + CCn1cc[n+](C)c1.CS(=O)(=O)[O-] | 0.489 ± 0.037 | 0.483 ± 0.037 | 0.479 ± 0.037 | 0.474 ± 0.037 | 0.47 ± 0.04 | 0.467 ± 0.036

Row | Compound | activity coefficient (308.15 K) | activity coefficient (318.15 K) | activity coefficient (328.15 K) | activity coefficient (338.15 K) | activity coefficient (348.15 K) | activity coefficient (358.15 K)
20 | CCCCCCCCC [nonane] + CCn1cc[n+](C)c1.CS(=O)(=O)[O-] | 911 ± 63 | 779 ± 54 | 690 ± 48 | 607 ± 42 | 547 ± 38 | 507 ± 35
21 | Cc1cccc(C)c1 [1,3-dimethylbenzene] + CCn1cc[n+](C)c1.CS(=O)(=O)[O-] | 19.7 ± 1.3 | 19.1 ± 1.3 | 18.6 ± 1.3 | 18.1 ± 1.2 | 17.6 ± 1.2 | 17.1 ± 1.2
22 | C1CCCCCC1 [cycloheptane] + CCn1cc[n+](C)c1.CS(=O)(=O)[O-] | 113 ± 8 | 99.8 ± 6.9 | 90.7 ± 6.2 | 79.9 ± 5.5 | 72.6 ± 5 | 
23 | Cc1ccccc1C [1,2-dimethylbenzene] + CCn1cc[n+](C)c1.CS(=O)(=O)[O-] | 15 ± 1 | 14.6 ± 1 | 14.3 ± 1 | 14 ± 1 | 13.8 ± 0.9 | 13.5 ± 0.9
24 | CCCO [propan-1-ol] + CCn1cc[n+](C)c1.CS(=O)(=O)[O-] | 0.761 ± 0.05 | 0.75 ± 0.05 | 0.736 ± 0.049 | 0.724 ± 0.048 | 0.716 ± 0.048 | 0.708 ± 0.047
25 | C1CCOC1 [tetrahydrofuran] + CCn1cc[n+](C)c1.CS(=O)(=O)[O-] | 5.42 ± 0.37 | 5.3 ± 0.36 | 5.2 ± 0.4 | 5.1 ± 0.35 | 5 ± 0.34 | 4.91 ± 0.33
26 | Cc1ccccc1 [toluene] + CCn1cc[n+](C)c1.CS(=O)(=O)[O-] | 9.13 ± 0.62 | 9.03 ± 0.62 | 8.88 ± 0.61 | 8.77 ± 0.6 | 8.65 ± 0.59 | 8.53 ± 0.58
27 | C1CCCC1 [cyclopentane] + CCn1cc[n+](C)c1.CS(=O)(=O)[O-] | 46.2 ± 3.2 | 42.2 ± 2.9 | 39.5 ± 2.7 | 36.1 ± 2.5 | 33 ± 2.3 | 
28 | CC(C)=O [acetone] + CCn1cc[n+](C)c1.CS(=O)(=O)[O-] | 308 ± 21 | 318 ± 22 | 328 ± 23 | 338 ± 23 | 348 ± 24 | 358 ± 25
29 | c1ccccc1 [benzene] + CCn1cc[n+](C)c1.CS(=O)(=O)[O-] | 308 ± 21 | 318 ± 22 | 328 ± 23 | 338 ± 23 | 348 ± 24 | 358 ± 25
30 | C1COCCO1 [1,4-dioxane] + CCn1cc[n+](C)c1.CS(=O)(=O)[O-] | 2.6 ± 0.18 | 2.63 ± 0.18 | 2.67 ± 0.18 | 2.69 ± 0.18 | 2.72 ± 0.19 | 2.73 ± 0.19
31 | Cc1ccc(C)cc1 [1,4-dimethylbenzene] + CCn1cc[n+](C)c1.CS(=O)(=O)[O-] | 18.6 ± 1.3 | 18.7 ± 1.3 | 18.7 ± 1.3 | 18.8 ± 1.3 | 18.8 ± 1.3 | 18.9 ± 1.3
32 | C#CCCCC [1-hexyne] + CCn1cc[n+](C)c1.CS(=O)(=O)[O-] | 7.87 ± 0.54 | 8.07 ± 0.55 | 8.06 ± 0.55 | 8.29 ± 0.57 | 8.27 ± 0.56 | 
33 | C=Cc1ccccc1 [styrene] + CCn1cc[n+](C)c1.CS(=O)(=O)[O-] | 5.68 ± 0.39 | 5.71 ± 0.39 | 5.75 ± 0.39 | 5.79 ± 0.39 | 5.82 ± 0.4 | 5.85 ± 0.4
34 | C1CCCCCCC1 [cyclooctane] + CCn1cc[n+](C)c1.CS(=O)(=O)[O-] | 163 ± 11 | 143 ± 10 | 128 ± 9 | 114 ± 8 | 101 ± 7 | 
35 | C=CCCCC [hex-1-ene] + CCn1cc[n+](C)c1.CS(=O)(=O)[O-] | 85.1 ± 5.8 | 77.1 ± 5.3 | 70.4 ± 4.8 | 63.9 ± 4.4 |  | 
36 | c1ccncc1 [pyridine] + CCn1cc[n+](C)c1.CS(=O)(=O)[O-] | 1.56 ± 0.1 | 1.57 ± 0.1 | 1.59 ± 0.11 | 1.6 ± 0.1 | 1.62 ± 0.11 | 1.64 ± 0.11
37 | CC(C)OC(C)C [diisopropyl ether] + CCn1cc[n+](C)c1.CS(=O)(=O)[O-] | 79.6 ± 5.5 | 74.3 ± 5.1 | 68.7 ± 4.7 | 64.8 ± 4.4 | 60.6 ± 4.2 | 
38 | C=CCCCCCC [oct-1-ene] + CCn1cc[n+](C)c1.CS(=O)(=O)[O-] | 258 ± 18 | 228 ± 16 | 206 ± 14 | 187 ± 13 | 170 ± 12 | 
